The source of these data is ChEMBL document CHEMBL1157959, “Pimarane diterpene and cytochalasin derivatives from the endophytic fungus Eutypella scoparia PSU-D44” (2006).

One assay concerns Nannizzia gypsea. Description: Antimicrobial activity against Microsporum gypseum SH-MU-4. In kind it is functional.
For another assay, the system named is Staphylococcus aureus. Kind of assay: Antimicrobial activity against Staphylococcus aureus ATCC 25923. In kind it is functional.

SMILES strings stand for the structures. ≈ marks a conversion by molar mass, not a printed value.

In general, MIC refers to the least concentration at which growth counts as inhibited. The molecule `COc1ccc(C[C@@H]2NC(=O)[C@@]34OC(=O)O/C=C/[C@@](C)(O)C(=O)[C@@H](C)C/C=C/[C@H]3[C@H](O)[C@](C)(O)[C@@H](C)[C@@H]24)cc1` [SCOPARASIN B] returned a minimal inhibitory concentration (MIC) against Nannizzia gypsea of 30.3 µM (≈ 16.5 µg/mL).

Turning to `C=C[C@]1(C)C=C2C(=O)[C@]3(O)OC[C@@]4(CCCC(C)(C)[C@@]43O)[C@@]2(O)[C@H](O)C1` [DIAPORTHEIN B], the minimum inhibitory concentration (MIC) in the assay with Staphylococcus aureus is 87.8 µM (≈ 32 µg/mL).
